Data from ChEMBL document CHEMBL1201862, “PubChem BioAssay data set” (2004).
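How tested: cells in 96-well plates exposed to compound for 48 hours at five concentrations. GI50 marks 50% less growth.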 Activity calls are given as the source filed them. Cut-off read from the data, not from the text of the source: active = GI50 up to about 1.1 µM and inactive = higher.

Experiments:
Assay in all cases: NCI anticancer screen, dose series, 48 h
A549 = system: A549
SNB-75 = system: SNB-75
CAKI-1 = system: CAKI-1
UACC-62 = system: UACC-62
SR = system: SR
OVCAR-4 = system: OVCAR-4
OVCAR-8 = system: OVCAR-8
OVCAR-3 = system: OVCAR-3
HCC 2998 = system: HCC 2998
ACHN = system: ACHN
MCF7 = system: MCF7
SF-539 = system: SF-539
COLO 205 = system: COLO 205
HL-60 = system: HL-60
OVCAR-5 = system: OVCAR-5
M14 = system: M14
KM12 = system: KM12
MDA-MB-435 = system: MDA-MB-435
HCT-116 = system: HCT-116
MDA-N = system: MDA-N
MDA-MB-231 = system: MDA-MB-231
NCI/ADR-RES = system: NCI/ADR-RES
T47D = system: T47D
HOP-92 = system: HOP-92
SK-MEL-28 = system: SK-MEL-28
RXF 393 = system: RXF 393
CCRF-CEM = system: CCRF-CEM
PC-3 = system: PC-3
BT-549 = system: BT-549
HT-29 = system: HT-29
HCT-15 = system: HCT-15
Malme-3M = system: Malme-3M
EKVX = system: EKVX
NCI-H522 = system: NCI-H522
K562 = system: K562
NCI-H460 = system: NCI-H460
SNB-19 = system: SNB-19
SW-620 = system: SW-620
SF-268 = system: SF-268
NCI-H23 = system: NCI-H23
MOLT-4 = system: MOLT-4
SN12C = system: SN12C
UO-31 = system: UO-31
A498 = system: A498
SK-MEL-2 = system: SK-MEL-2
SF-295 = system: SF-295
SK-MEL-5 = system: SK-MEL-5
RPMI-8226 = system: RPMI-8226
NCI-H226 = system: NCI-H226
786-0 = system: 786-0
UACC-257 = system: UACC-257
SK-OV-3 = system: SK-OV-3
U-251 = system: U-251
LOX IMVI = system: LOX IMVI
IGROV-1 = system: IGROV-1
Hs-578T = system: Hs-578T
DU-145 = system: DU-145

Measured: GI50

c1ccc(C2C3=C(CCCC3)Nc3nc4cc5ccccc5cc4n32)cc1 (configuration not stated)
inactive: A549 > 100 µM | SNB-75 > 100 µM | CAKI-1 > 100 µM | UACC-62 > 100 µM | SR > 100 µM | OVCAR-4 > 100 µM | OVCAR-8 > 100 µM | OVCAR-3 > 100 µM | HCC 2998 > 100 µM | ACHN > 100 µM | MCF7 > 100 µM | SF-539 > 100 µM | COLO 205 > 100 µM | HL-60 > 100 µM | OVCAR-5 > 100 µM | M14 > 100 µM | KM12 > 100 µM | MDA-MB-435 > 100 µM | HCT-116 > 100 µM | MDA-N > 100 µM | MDA-MB-231 > 100 µM | NCI/ADR-RES > 100 µM | T47D > 100 µM | HOP-92 > 100 µM | SK-MEL-28 > 100 µM | RXF 393 > 100 µM | CCRF-CEM > 100 µM | PC-3 > 100 µM | BT-549 > 100 µM | HT-29 > 100 µM | Malme-3M > 100 µM | EKVX > 100 µM | NCI-H522 > 100 µM | K562 > 100 µM | NCI-H460 > 100 µM | SNB-19 > 100 µM | SW-620 > 100 µM | SF-268 > 100 µM | NCI-H23 > 100 µM | MOLT-4 > 100 µM | SN12C > 100 µM | UO-31 > 100 µM | A498 > 100 µM | SK-MEL-2 > 100 µM | SF-295 > 100 µM | SK-MEL-5 > 100 µM | RPMI-8226 > 100 µM | NCI-H226 > 100 µM | 786-0 > 100 µM | UACC-257 > 100 µM | SK-OV-3 > 100 µM | U-251 > 100 µM | LOX IMVI > 100 µM | IGROV-1 > 100 µM | Hs-578T > 100 µM | DU-145 > 100 µM
> 100 µM: HCT-15
